Patent publication US8685936B2, “Sphingosine kinase inhibitor prodrugs” (Apogee Biotechnology Corporation, priority 2009, dated 2014)
Entries after “also recorded” stand apart in the source; their conditions may differ.

Legend:
[1] = system: DSS-colitis model; assay: Acute DSS-colitis model of inflammatory bowel disease; assay type: in vivo, C57BL/6 mice; conditions: for colon length (contraction of the colon), ester prodrugs: 4-5 per group (Example 17, FIG. 10)
Experimental: FIG. 7. Effects of Compound 1 and Compound 2 on the Disease Activity Index (DAI) in the acute DSS-colitis model. […] After 6 days, the DAI was calculated for each group. Values represent the mean±std. dev. for 5-6 mice per group. […] FIG. 8. Effects of Compound 1 and Compound 2 on colon length in the acute DSS-colitis model. […] After 6 days, the animals were sacrificed and the length of the colon was measured. Values represent the mean±std. dev. for 6-7 mice per group. In this model, colon length decreases as the disease progresses. […] FIG. 9. Effects of Compound 1 and Compound 2 on neutrophil infiltration into the colon in the acute DSS-colitis model. […] After 6 days, the animals were sacrificed and the colons were harvested. Myeloperoxidase activity (MPO) was measured and normalized by the protein concentration of the samples. Values represent the mean±std. dev. for 6-7 mice per group. In this model, MPO activity in the colon increases as a result of neutrophil infiltration into the colon as the disease progresses. […] FIG. 10. Effects of ester prodrugs on colon length in the acute DSS-colitis model. C57BL/6 mice were treated for 6 days as follows: 2% DSS in the drinking water and daily oral administration of Vehicle (described in FIG. 7); or 2% DSS in the drinking water and oral administration of 50 mg/kg the indicated ester prodrugs in Vehicle. After 6 days, the animals were sacrificed and the length of the colon was measured. Values represent the mean±std. dev. for 4-5 mice per group. In this model, colon length decreases as the disease progresses. […] FIG. 11. Effects of ester prodrugs on neutrophil infiltration into the colon in the acute DSS-colitis model. C57BL/6 mice were treated for 6 days as follows: 2% DSS in the drinking water and daily oral administration of Vehicle (described in FIG. 7); or 2% DSS in the drinking water and oral administration of 50 mg/kg the indicated ester prodrugs in Vehicle. After 6 days, the animals were sacrificed and the length of the colon was measured. Values represent the mean±std. dev. for 4-5 mice per group. In this model, MPO activity in the colon increases as a result of neutrophil infiltration into the colon as the disease progresses. […] In these experiments, male C57BL/6 mice were provided with standard rodent diet and water ad libitum. After their acclimation, the animals were randomly divided into groups of 5 or 6 for DSS (40,000 MW from ICN Biomedicals, Inc., Aurora, Ohio)- and drug-treatment. The Compounds were dissolved in a Vehicle consisting of 46.7% PEG 400, 46.7% of a solution of 0.375% Tween 80 in saline and 6.6% ethanol, and given once daily (starting on Day 0) by oral gavage in a volume of 0.1 mL per dose. The mice were given normal drinking water or 2% DSS (starting on Day 0) and treated orally with Compound 1 or Compound 2 at a dose of 50 mg/kg daily. The body weight of each animal was measured each day, and the Disease Activity Index (DAI) was scored for each animal on Day 6. On Day 6, the animals were sacrificed by cervical dislocation and the entire colon was removed and measured to the nearest 0.1 cm. The distal 3 cm of the colons were used for biochemical analyses of inflammation markers.

[2] = Conversion of Compound 2 to Compound 1 in living mice; plasma levels of Compound 1 by HPLC; assay type: in vivo
Experimental: FIG. 4. Conversion of Compound 2 into Compound 1 in vivo. Balb/C female mice, 6-8 weeks old, were dosed with either Compound 1 (●) or Compound 2 (♦) at 50 mg/kg by intravenous injection. Mice were euthanized at the indicate times after injection, and blood was harvested by cardiac puncture and plasma was prepared. The plasma was then extracted and analyzed for Compound 1 levels by HPLC.
To extend the in vitro studies described above, the ability of Compound 2 to be converted to Compound 1 in an in vivo test system was determined. In these experiments, Compound 1 or Compound 2 was dissolved in PEG400 and administered to female Balb/C mice at a dose of 50 mg/kg by intravenous injection. Mice were sacrificed and blood was removed via cardiac puncture at 2 minutes, 15 minutes, 30 minutes or 60 minutes. The concentration of Compound 1 in the blood of the animals at each of the time points was determined using HPLC with UV detection as described in the previous Example. […] In the case of administration of Compound 2, plasma concentrations of Compound 1 rose during the first 30 minutes and then were decreased with a half-time of clearance of approximately 20 minutes.

[3] = system: Murine JC mammary adenocarcinoma cells; assay: Cytotoxicity, MTS cell viability assay; assay type: cell-based; conditions: 72 hours
Source text: FIG. 5. Inhibition of tumor cell proliferation by Compound 1 and Compound 2. Murine JC mammary adenocarcinoma cells were exposed to the indicated concentrations of either Compound 1 (▪) or Compound 2 (▴) for 72 hr. At the end of the exposure, the number of viable tumor cells was quantified using the MTS assay. Values represent the fraction of surviving cells compared with DMSO-(vehicle)-treated control cells.
To further assess the biological efficacies of the Compounds in intact cells, Compound 1 and Compound 2 were evaluated for cytotoxicity using a murine breast cancer cell line. These experiments followed methods that have been extensively used. The cells were treated with varying doses of the test Compound for 72 hours, and then cell viability was measured using CellTiter 96® AQueous Non-Radioactive Cell Proliferation Assay (MTS) available from Promega Corporation. Values represent the mean±std. dev. percentage of cells that survive at each of the indicated concentrations of Compound 1 or Compound 2. […] However, the extent of cell killing and the potency for cell killing were greater for Compound 2 than Compound 1.

[4] = system: TNBS-induced Crohn's Disease model; assay: TNBS-induced Crohn's Disease model; assay type: in vivo
Experimental: FIG. 12. Effects of Compound 1 and Compound 2 on colon histology in the TNBS-induced Crohn's Disease model. On Day 0, female Sprague-Dawley rats were administered TNBS using a stainless steel catheter that was inserted into the colon (8 cm proximal to the anus; 1.0 mL of solution containing 30 mg TNBS and 20% ethanol in PBS). On Days 0-5 animals received daily oral gavage of Vehicle (described in FIG. 7) or 50 mg/kg of Compound 1 or Compound 2 in Vehicle. On Day 6, the colons were removed, weighed and scored for macroscopic damage. The distal 6 cm were transected for subsequent histology and biochemical analyses. In this model, the macroscopic score is an index of histologic damage to the colon which increases as the disease progresses.
FIG. 13. Effects of Compound 1 and Compound 2 on colon weight in the TNBS-induced Crohn's Disease model. Colon weights were measured for the rats described in FIG. 12. Values represent the mean±std. dev. for 5-6 rats per group. In this model, colon weight increases as the disease progresses due to progressive inflammation-mediated edema.
FIG. 14. Effects of Compound 2 on neutrophil infiltration into the colon in the TNBS-induced Crohn's Disease model. Neutrophil infiltration was evaluated in the rats described in FIG. 12. Values represent the mean±std. dev. for 5-6 rats per group. In this model, MPO activity in the colon increases as a result of neutrophil infiltration into the colon as the disease progresses.
The trinitrobenzene sulfonic acid (TNBS) model in rats provides a rapid, reliable and reproducible IBD model that mimics the manifestations of Crohn's Disease. Application of the hapten TNBS to the colon in the presence of ethanol results in transmural infiltrative disease that is limited to the colon and appears to be an IL-12-driven, Th1-mediated immunologic response. […] TNBS induces measurable injury within 2 to 3 days, peak acute inflammation within a week, and gradual progression into chronic inflammation lasting about 2 months.
To test the efficacy of the Compounds, groups of female Sprague-Dawley rats were administered TNBS on Day 0 and treated with vehicle (as the negative control group), Compound 1 or Compound 2 on Days 0-5 by oral gavage at a dose of 50 mg/kg/day. […] Disease progression was evaluated by macroscopic score, colon weight and colon MPO activity at sacrifice. The macroscopic score measures macroscopic damage within the distal 6 cm of the colon using a system that considers the extent of and number of ulcerations.

[5] = 2% DSS, 50 mg/kg oral, 6 days, C57BL/6 mice
[6] = TNBS Day 0, 50 mg/kg/day oral gavage Days 0-5, Day 6, female Sprague-Dawley rats

With CCC(=O)Oc1ccc(CCNC(=O)C23CC4CC(C2)CC(c2ccc(Cl)cc2)(C4)C3)cc1OC(=O)CC [Compound 3, Propionic acid 2-propionyloxy-5-(2-{[3-(4-chlorophenyl)-adamantane-1-carbonyl]-amino}ethyl)phenyl ester] the “colon length (contraction of the colon), ester prodrugs” value (“colon length … ester prodrugs” for short) [1, 5] was “effective in preventing the contraction of the colons” and the melting point was 114 to 115 °C.

With CC(C)C(N)C(=O)Oc1cc(CCNC(=O)C23CC4CC(C2)CC(c2ccc(Cl)cc2)(C4)C3)ccc1O (stereo not drawn) [Compound 6, 2-Amino-3-methyl-butyric acid 5-(2-{[3-(4-chlorophenyl)adamantane-1-carbonyl]amino}ethyl)-2-hydroxyphenyl ester] the “colon length … ester prodrugs” value [1, 5] was “effective in preventing the contraction of the colons” and the “colonic MPO activity, ester prodrugs” value ([1]; 2% DSS, 50 mg/kg oral, 6 days, C57BL/6 mice, 4-5 per group (Example 17, FIG. 11)) was “all of the Compounds except Compound 6 substantially prevented the elevation of colonic MPO activity”.

For CCCC(=O)Oc1ccc(CCNC(=O)C23CC4CC(C2)CC(c2ccc(Cl)cc2)(C4)C3)cc1OC(=O)CCC [Compound 4, Butyric acid 2-butyryloxy-5-(2-{[3-(4-chlorophenyl)-adamantane-1-carbonyl]-amino}ethyl)phenyl ester], the “colon length … ester prodrugs” value ([1]; 2% DSS, 50 mg/kg oral, 6 days, C57BL/6 mice, 50 mg/kg) was “effective in preventing the contraction of the colons; also recorded: slightly less effective” and the melting point was 78 to 80 °C.

In the case of O=C(NCCc1ccc(O)c(O)c1)C12CC3CC(C1)CC(c1ccc(Cl)cc1)(C3)C2 [Compound 1, 3-(4-Chlorophenyl)-adamantane-1-carboxylic acid [2-(3,4-dihydroxyphenyl)-ethyl]amide], the “time of maximum plasma concentration of Compound 1” value ([2]; 50 mg/kg intravenous, female Balb/C mice, sampling at 2, 15, 30, 60 minutes) is reported as “earliest time point”, the “half-time for clearance of Compound 1 from plasma” value ([2]; 50 mg/kg of the named compound by intravenous injection in PEG400, female Balb/C mice, Compound 1 measured) is reported as “approximately 5 minutes” and the “inhibition of tumor cell proliferation (cell viability)” value [3] is reported as “can inhibit tumor cell proliferation”. For the same molecule, the “Disease Activity Index (DAI)” value ([1]; 2% DSS in drinking water, 50 mg/kg daily oral, Day 6, C57BL/6 mice) was “reduced the intensity of the IBD manifestations”, the “colon myeloperoxidase (MPO) activity (neutrophil infiltration)” value ([1]; 2% DSS, 50 mg/kg daily oral, Day 6, C57BL/6 mice (Example 16, FIG. 9)) was “markedly attenuated” and the colon length ([1]; 2% DSS, 50 mg/kg oral, Day 6, C57BL/6 mice (Example 16, FIG. 8)) was “colons of significantly longer length”. The Compound-related toxicities ([4]; 50 mg/kg/day oral gavage Days 0-5, rats sacrificed on Day 6) was “no Compound-related toxicities apparent”, the “Macroscopic Score of colon damage” value [4, 6] was “but not Compound 1, reduced the Macroscopic Score; also recorded: much less active” and the colon weight [4, 6] was “but not Compound 1 reduced the elevation of the colon weight; also recorded: much less active”.
